Data reported in ChEMBL document CHEMBL4414548 (J Med Chem, 2019).

Columns and labels:
[1] = biological target: 3',5'-cyclic-AMP phosphodiesterase 4D (Homo sapiens, UniProt Q08499); assay: Inhibition of [3H]cAMP binding to recombinant human His-Tb fused PDE4D2 (86 to 413 residues) expressed in Escherichia coli using [3H]cAMP as substrate preincubated for 10 mins followed by [3H]cAMP addition and measured after 1 hr by scintillation proximity assay
[2] = Metabolic stability in mouse liver microsomes assessed as parent compound remaining after 10 mins; type: ADME, Microsome; conditions: read-out: Stability
[3] = Efflux ratio of permeability in human Caco2; type: ADME, cell-based; conditions: Caco-2
[4] = biological target: T1, Non-receptor tyrosine-protein kinase TYK2 (Homo sapiens, UniProt P29597); assay: Inhibition of fluorescein-labeled kinase tracer binding to His-TVMV-fused TYK2 JH2 domain (575 to 869 residues) (unknown origin) measured after 90 mins by HTRF assay
T1 sequence (P29597 whole entry, the tested form may be a part): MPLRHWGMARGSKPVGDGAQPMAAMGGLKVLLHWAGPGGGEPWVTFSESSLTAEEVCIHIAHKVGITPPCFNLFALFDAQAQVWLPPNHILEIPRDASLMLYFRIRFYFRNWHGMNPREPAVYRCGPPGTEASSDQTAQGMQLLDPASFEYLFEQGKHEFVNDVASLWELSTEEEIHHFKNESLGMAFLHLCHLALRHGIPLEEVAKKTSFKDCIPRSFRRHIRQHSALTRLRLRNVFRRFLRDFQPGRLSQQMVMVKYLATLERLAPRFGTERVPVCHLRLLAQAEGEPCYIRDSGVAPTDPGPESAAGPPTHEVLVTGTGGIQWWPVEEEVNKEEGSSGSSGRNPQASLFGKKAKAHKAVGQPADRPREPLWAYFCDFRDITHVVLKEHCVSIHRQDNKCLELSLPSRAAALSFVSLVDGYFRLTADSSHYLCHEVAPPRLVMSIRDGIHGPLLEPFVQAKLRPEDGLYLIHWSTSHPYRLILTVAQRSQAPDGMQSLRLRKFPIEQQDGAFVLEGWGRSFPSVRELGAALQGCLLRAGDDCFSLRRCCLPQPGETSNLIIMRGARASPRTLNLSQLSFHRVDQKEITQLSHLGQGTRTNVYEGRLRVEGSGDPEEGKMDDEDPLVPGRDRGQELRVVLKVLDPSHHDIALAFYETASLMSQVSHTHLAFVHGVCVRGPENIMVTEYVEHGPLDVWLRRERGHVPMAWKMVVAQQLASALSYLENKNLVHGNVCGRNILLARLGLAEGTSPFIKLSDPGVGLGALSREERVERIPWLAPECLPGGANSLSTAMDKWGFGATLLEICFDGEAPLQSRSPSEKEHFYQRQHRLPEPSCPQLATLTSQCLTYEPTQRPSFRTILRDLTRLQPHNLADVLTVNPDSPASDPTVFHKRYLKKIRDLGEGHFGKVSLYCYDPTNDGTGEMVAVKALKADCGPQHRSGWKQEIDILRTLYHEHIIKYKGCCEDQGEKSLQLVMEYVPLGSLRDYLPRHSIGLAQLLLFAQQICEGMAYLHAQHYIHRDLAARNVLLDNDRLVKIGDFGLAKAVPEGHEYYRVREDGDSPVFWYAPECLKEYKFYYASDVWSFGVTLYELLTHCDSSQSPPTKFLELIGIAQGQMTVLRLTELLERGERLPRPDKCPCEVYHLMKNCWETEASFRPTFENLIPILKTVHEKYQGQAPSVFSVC

[5] = Metabolic stability in human liver microsomes assessed as parent compound remaining after 10 mins; type: ADME, Microsome; conditions: read-out: Stability
[6] = biological target: JAK2/TYK2 (Homo sapiens, UniProt O60674+P29597); assay: Inhibition of TYK2/JAK2 in IL23-stimulated human Kit225 cells by steady-glo luciferase assay
[7] = Metabolic stability in rat liver microsomes assessed as parent compound remaining after 10 mins; type: ADME, Microsome; conditions: read-out: Stability
[8] = biological target: JAK1/TYK2 (Homo sapiens, UniProt P23458+P29597); assay: Inhibition of TYK2/JAK1 in IFNalpha-stimulated human Kit225 cells by steady-glo luciferase assay
JAK1/TYK2, sequence (P23458 whole entry, the tested form may be a part): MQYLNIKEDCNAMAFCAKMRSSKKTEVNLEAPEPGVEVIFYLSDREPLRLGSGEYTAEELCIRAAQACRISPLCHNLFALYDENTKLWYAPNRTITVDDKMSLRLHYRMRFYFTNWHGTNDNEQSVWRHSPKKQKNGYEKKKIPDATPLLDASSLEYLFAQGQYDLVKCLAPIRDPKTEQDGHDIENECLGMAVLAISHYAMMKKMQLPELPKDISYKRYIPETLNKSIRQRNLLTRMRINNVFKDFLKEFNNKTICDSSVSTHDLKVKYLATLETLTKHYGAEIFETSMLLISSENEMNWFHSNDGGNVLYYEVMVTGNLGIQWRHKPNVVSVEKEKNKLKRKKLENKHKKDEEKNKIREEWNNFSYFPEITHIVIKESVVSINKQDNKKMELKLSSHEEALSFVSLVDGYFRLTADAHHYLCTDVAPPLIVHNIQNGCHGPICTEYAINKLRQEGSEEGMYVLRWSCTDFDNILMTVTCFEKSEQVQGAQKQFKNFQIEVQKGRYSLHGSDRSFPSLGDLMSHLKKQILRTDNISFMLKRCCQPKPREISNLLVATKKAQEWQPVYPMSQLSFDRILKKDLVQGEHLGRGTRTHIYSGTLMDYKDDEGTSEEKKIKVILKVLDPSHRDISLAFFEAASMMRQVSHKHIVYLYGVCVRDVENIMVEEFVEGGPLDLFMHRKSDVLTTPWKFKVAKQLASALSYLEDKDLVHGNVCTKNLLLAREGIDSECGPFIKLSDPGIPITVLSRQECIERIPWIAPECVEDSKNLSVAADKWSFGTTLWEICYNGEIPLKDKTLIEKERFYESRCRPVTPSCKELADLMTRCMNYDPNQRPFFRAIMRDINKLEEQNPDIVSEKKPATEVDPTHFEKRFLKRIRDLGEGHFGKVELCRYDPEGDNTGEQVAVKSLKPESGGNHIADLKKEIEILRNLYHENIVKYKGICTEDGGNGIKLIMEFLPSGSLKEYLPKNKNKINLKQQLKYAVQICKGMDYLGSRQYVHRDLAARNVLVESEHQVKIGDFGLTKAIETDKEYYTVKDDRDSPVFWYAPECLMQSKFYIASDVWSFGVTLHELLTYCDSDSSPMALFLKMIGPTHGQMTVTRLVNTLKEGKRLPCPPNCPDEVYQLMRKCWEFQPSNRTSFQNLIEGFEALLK
JAK1/TYK2, sequence (P29597 whole entry, the tested form may be a part): as the sequence (P29597 whole entry, the tested form may be a part) above

[9] = biological target: T1, Non-receptor tyrosine-protein kinase TYK2; assay: Inhibition of TYK2 JH2 domain in human whole blood assessed as inhibition of IFNalpha-induced STAT5 phosphorylation preincubated for 1 hr followed by IFNalpha stimulation and measured after 15 mins by fluorescence assay; type: tissue-based
[10] = Permeability across apical to basolateral side in human Caco2 cells; type: ADME, cell-based; conditions: Caco-2, read-out: permeability
[11] = AUClast in mouse at 10 mg/kg, po; type: ADME, organism-based; design: dose 10 mg/kg, route oral, time 0 - last; conditions: in vivo
[12] = Cmax in mouse at 10 mg/kg, po; type: ADME, organism-based; design: dose 10 mg/kg, route oral; conditions: in vivo
[13] = Half life in dog liver microsomes; type: ADME, Canis lupus familiaris, Microsome
[14] = Half life in rat liver microsomes; type: ADME, Microsome
[15] = Partition coefficient, log P of compound by HPLC analysis; type: physicochemical; conditions: octanol/water
[16] = biological target: T2, Voltage-gated inwardly rectifying potassium channel KCNH2 (Homo sapiens, UniProt Q12809); assay: Inhibition of human ERG by fluorescence polarization assay
[17] = biological target: Mast/stem cell growth factor receptor Kit (Homo sapiens, UniProt P10721); assay: Inhibition of cKIT (unknown origin)
Mast/stem cell growth factor receptor Kit, sequence (P10721 whole entry): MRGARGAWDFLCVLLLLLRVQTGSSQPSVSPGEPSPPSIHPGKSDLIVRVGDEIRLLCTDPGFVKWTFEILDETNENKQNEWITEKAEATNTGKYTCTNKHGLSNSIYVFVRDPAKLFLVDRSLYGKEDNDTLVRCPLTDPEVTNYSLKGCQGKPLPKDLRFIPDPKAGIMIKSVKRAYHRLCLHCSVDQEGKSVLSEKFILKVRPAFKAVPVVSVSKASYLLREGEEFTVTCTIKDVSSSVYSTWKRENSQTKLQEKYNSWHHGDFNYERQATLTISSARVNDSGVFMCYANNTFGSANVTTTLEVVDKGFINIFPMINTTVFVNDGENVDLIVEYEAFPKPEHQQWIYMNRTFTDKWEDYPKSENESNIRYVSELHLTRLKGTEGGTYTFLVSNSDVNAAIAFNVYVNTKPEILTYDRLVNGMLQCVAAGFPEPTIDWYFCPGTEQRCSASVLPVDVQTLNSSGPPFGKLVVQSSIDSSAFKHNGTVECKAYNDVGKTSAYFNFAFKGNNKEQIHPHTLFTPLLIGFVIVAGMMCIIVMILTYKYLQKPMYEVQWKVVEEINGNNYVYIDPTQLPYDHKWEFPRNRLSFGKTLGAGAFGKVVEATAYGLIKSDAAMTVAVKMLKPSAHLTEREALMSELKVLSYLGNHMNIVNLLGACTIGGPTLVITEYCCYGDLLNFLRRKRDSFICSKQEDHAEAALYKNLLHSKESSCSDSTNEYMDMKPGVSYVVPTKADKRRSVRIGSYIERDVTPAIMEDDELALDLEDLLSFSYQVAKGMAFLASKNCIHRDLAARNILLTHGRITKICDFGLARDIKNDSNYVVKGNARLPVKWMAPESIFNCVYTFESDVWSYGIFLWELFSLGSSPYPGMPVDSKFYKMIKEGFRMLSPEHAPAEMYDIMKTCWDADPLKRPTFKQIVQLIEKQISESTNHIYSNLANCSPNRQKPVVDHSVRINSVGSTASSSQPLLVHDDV

[18] = Half life in human liver microsomes; type: ADME, Microsome
[19] = AUClast in mouse at 10 mg/kg, po after 7 hrs; type: ADME, organism-based; design: time < 7 hr, dose 10 mg/kg, route oral; conditions: in vivo
[20] = Half life in mouse liver microsomes; type: ADME, Microsome
[21] = Half life in cynomolgus monkey liver microsomes; type: ADME, Macaca fascicularis, Microsome
[22] = biological target: Non-receptor tyrosine-protein kinase TYK2 (Mus musculus, UniProt Q9R117); assay: Inhibition of TYK2 JH2 domain in mouse whole blood assessed as inhibition of IFNalpha-induced STAT1 phosphorylation preincubated for 1 hr followed by IFNalpha stimulation and measured after 15 mins by fluorescence assay; type: tissue-based
[23] = Cmax in mouse at 10 mg/kg, po after 7 hrs; type: ADME, organism-based; design: dose 10 mg/kg, route oral; conditions: in vivo
[24] = biological target: JAK3/JAK1 (Homo sapiens, UniProt P23458+P52333); assay: Inhibition of JAK1/JAK3 (unknown origin) in IL-2 stimulated cells by cell based assay
JAK3/JAK1, sequence (P52333 whole entry, the tested form may be a part): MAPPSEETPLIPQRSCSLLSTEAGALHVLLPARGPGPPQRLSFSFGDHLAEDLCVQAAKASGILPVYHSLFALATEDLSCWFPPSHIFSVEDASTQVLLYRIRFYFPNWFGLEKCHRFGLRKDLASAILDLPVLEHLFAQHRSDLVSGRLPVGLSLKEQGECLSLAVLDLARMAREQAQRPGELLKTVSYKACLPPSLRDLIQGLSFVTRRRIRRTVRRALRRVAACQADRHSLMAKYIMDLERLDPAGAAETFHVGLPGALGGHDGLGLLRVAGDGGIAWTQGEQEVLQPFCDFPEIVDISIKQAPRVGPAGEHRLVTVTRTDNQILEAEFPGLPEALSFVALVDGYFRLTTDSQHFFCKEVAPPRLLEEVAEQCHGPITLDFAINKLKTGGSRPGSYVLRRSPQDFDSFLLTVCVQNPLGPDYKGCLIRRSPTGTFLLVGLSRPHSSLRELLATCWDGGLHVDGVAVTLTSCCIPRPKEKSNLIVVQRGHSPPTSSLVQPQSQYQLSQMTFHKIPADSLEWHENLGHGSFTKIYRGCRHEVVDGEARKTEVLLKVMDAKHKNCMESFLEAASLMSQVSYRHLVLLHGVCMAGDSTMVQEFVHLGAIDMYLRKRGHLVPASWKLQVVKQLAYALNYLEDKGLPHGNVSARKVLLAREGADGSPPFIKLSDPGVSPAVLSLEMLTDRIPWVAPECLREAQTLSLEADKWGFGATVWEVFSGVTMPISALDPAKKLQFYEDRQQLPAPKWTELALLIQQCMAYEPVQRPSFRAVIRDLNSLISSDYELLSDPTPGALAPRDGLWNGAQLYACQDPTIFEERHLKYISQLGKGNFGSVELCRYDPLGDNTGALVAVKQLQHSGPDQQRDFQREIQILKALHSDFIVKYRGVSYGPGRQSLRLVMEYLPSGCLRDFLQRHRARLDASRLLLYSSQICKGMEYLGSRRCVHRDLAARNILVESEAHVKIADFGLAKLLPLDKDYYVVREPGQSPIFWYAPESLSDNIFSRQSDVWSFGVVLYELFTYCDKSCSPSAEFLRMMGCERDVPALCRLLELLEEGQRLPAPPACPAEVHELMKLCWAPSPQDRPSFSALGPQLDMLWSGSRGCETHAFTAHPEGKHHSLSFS
JAK3/JAK1, sequence (P23458 whole entry, the tested form may be a part): as the sequence (P23458 whole entry, the tested form may be a part) above

[25] = biological target: Tyrosine-protein kinase JAK1 (Homo sapiens, UniProt P23458); assay: Inhibition of JAK1 JH1 domain (unknown origin)
Tyrosine-protein kinase JAK1, sequence (P23458 whole entry, the tested form may be a part): as above

[26] = biological target: T1, Non-receptor tyrosine-protein kinase TYK2; assay: Inhibition of TYK2 JH1 domain (unknown origin)
[27] = biological target: Tyrosine-protein kinase JAK2 (Homo sapiens, UniProt O60674); assay: Inhibition of JAK2 JH1 domain (unknown origin)
[28] = biological target: JAK2/JAK1 (Homo sapiens, UniProt O60674+P23458); assay: Inhibition of JAK1/JAK2 (unknown origin) in GM-CSF stimulated cells by cell based assay
[29] = biological target: T1, Non-receptor tyrosine-protein kinase TYK2; assay: Inhibition of TYK2 JH2 (unknown origin) by morrison titration assay; conditions: read-out: Ki(app)
[30] = biological target: T2, Voltage-gated inwardly rectifying potassium channel KCNH2; assay: Inhibition of human ERG by patch clamp assay

Row | Compound | efflux ratio [3] | IC50 [4] [nM] | IC50 [6] [nM] | IC50 [8] [nM] | IC50 [9] [nM] | Papp A→B [10] [×10⁻⁶ cm/s] | IC50 [17] [nM] | other results
1 | CNC(=O)c1cnc(Nc2ccc(F)cn2)cc1Nc1ccccc1 | 0.5 | 11 | 5600 | 5200 | > 10000 | 29.3 |  | IC50 [1]: 4500 nM; remaining at 10 min [2]: 37%; remaining at 10 min [5]: 51%; remaining at 10 min [7]: 65%
2 | CNC(=O)c1cnc(Nc2ncccn2)cc1Nc1ccccc1C(N)=O |  | 60 | > 12500 | > 12500 |  |  |  | 
3 | CNC(=O)c1cnc(Nc2ccc(F)cn2)cc1Nc1ccc(F)c(F)c1OC | 0.5 | 1.5 | 380 | 220 | 2400 | 4.1 |  | IC50 [1]: 7400 nM; remaining at 10 min [2]: 58%; AUC(0-t) [11]: 4 µM·h; remaining at 10 min [5]: 57%; remaining at 10 min [7]: 73%; Cmax [12]: 1600 nM
4 | CNC(=O)c1cnc(Nc2ccccn2)cc1Nc1ccccc1S(C)(=O)=O | 9.8 | 0.95 | 71 | 57 | 250 | 10.2 | 630 | half-life [13]: 13 min; half-life [14]: 25 min; logP [15]: 2.24; IC50 [16]: 36000 nM; half-life [18]: 53 min; AUC(0-t) at 7 h [19]: 4.29 µM·h; half-life [20]: 14 min; half-life [21]: 3 min; IC50 [22]: 340 nM; Cmax [23]: 1860 nM
5 | [2H]C([2H])([2H])NC(=O)c1nnc(Nc2ccc(F)cn2)cc1Nc1ccccc1S(C)(=O)=O | 3.4 | 0.58 |  |  | 200 | 14.3 |  | half-life [13]: 32 min; half-life [14]: 80 min; logP [15]: 2.77; half-life [18]: 71 min; AUC(0-t) at 7 h [19]: 11.6 µM·h; half-life [20]: 50 min; half-life [21]: 10 min; IC50 [22]: 380 nM; Cmax [23]: 3890 nM
6 | CNC(=O)c1cnc(Nc2ccccc2)cc1Nc1ccccc1C(N)=O |  | 33 | 6900 | 7600 |  |  |  | 
7 | CNC(=O)c1cnc(Nc2ccccn2)cc1Nc1ccccc1C(N)=O |  | 1.6 | 280 | 310 |  |  |  | 
8 | CNC(=O)c1cnc(Nc2ncccc2F)cc1Nc1ccccc1C(N)=O |  | 5.9 | 1300 | 1800 |  |  |  | 
9 | CCNC(=O)c1cnc(Nc2ccc(F)cn2)cc1Nc1ccccc1C(N)=O |  | 13 | 4100 | 2500 |  |  |  | IC50 [24]: > 12500 nM; IC50 [25]: > 2000 nM; IC50 [26]: > 2000 nM; IC50 [27]: > 2000 nM; IC50 [28]: > 12500 nM
10 | CNC(=O)c1cnc(Nc2ccc(OC)cn2)cc1Nc1ccccc1S(C)(=O)=O |  |  |  |  |  | 2.9 | 830 | 
11 | [2H]C([2H])([2H])NC(=O)c1nnc(NC(=O)C2CC2)cc1Nc1ccccc1S(C)(=O)=O | 7.7 | 1.3 |  | 1.3 | 230 | 6.9 |  | half-life [13]: 75 min; Ki [29]: 0.8 nM; IC50 [25]: > 2000 nM; IC50 [26]: 50000 nM; half-life [14]: 81 min; logP [15]: 2.03; IC50 [30]: > 30000 nM; half-life [18]: 110 min; IC50 [27]: > 50000 nM; AUC(0-t) at 7 h [19]: 6.61 µM·h; half-life [20]: 48 min; half-life [21]: 67 min; IC50 [22]: 340 nM; Cmax [23]: 3420 nM
12 | NC(=O)c1ccccc1Nc1cc(Nc2ccc(F)cn2)ncc1C(=O)NC1CC1 |  | 33 | 3300 | 5600 |  |  |  | IC50 [24]: > 12500 nM; IC50 [25]: > 2000 nM; IC50 [26]: > 2000 nM; IC50 [27]: > 2000 nM; IC50 [28]: > 12500 nM
13 | CNC(=O)c1cnc(Nc2ccc(F)cn2)cc1Nc1ccccc1OC | 0.4 | 5.2 | 310 | 510 | 3300 | 26.7 |  | IC50 [1]: 9200 nM; remaining at 10 min [2]: 35%; remaining at 10 min [5]: 52%; remaining at 10 min [7]: 28%
14 | CNC(=O)c1cnc(Nc2cc(C)ccn2)cc1Nc1ccccc1S(C)(=O)=O | 9 |  | 27 | 21 | 190 | 6.5 | > 2000 | IC50 [16]: 16000 nM
15 | CS(=O)(=O)c1ccccc1Nc1cc(Nc2ccc(F)cn2)ncc1C(N)=O |  | 0.32 | 46 | 35 | 33 |  |  | remaining at 10 min [2]: 80%; IC50 [24]: 960 nM; IC50 [25]: 43 nM; IC50 [26]: 42 nM; remaining at 10 min [5]: 77%; remaining at 10 min [7]: 3%; IC50 [27]: 18 nM; IC50 [22]: 83 nM; IC50 [28]: 260 nM
16 | CCS(=O)(=O)c1ccccc1Nc1cc(Nc2ccc(F)cn2)ncc1C(=O)NC | 6 | 8 | 1900 | 1000 | 4400 | 5.3 |  | IC50 [1]: 4600 nM; remaining at 10 min [2]: 43%; remaining at 10 min [5]: 91%; remaining at 10 min [7]: 76%
17 | CCCC(=O)Nc1cc(Nc2ccccc2S(C)(=O)=O)c(C(=O)NC)cn1 |  |  | 2000 | 2700 | 2500 |  | > 2000 | 
18 | CNC(=O)c1cnc(NC(=O)C2CC2)cc1Nc1ccccc1S(C)(=O)=O | 29 | 1.6 | 430 | 390 | 310 | 1.7 | > 2000 | half-life [13]: 34 min; half-life [14]: 115 min; logP [15]: 1.89; IC50 [16]: > 80000 nM; half-life [18]: > 120 min; AUC(0-t) at 7 h [19]: 0.56 µM·h; half-life [20]: 10 min; half-life [21]: 108 min; IC50 [22]: 830 nM; Cmax [23]: 190 nM
19 | CNC(=O)c1cnc(Nc2ccc(N3CCOCC3)cn2)cc1Nc1ccccc1S(C)(=O)=O | > 26 |  | 71 | 59 | 58 | < 1.5 | > 2000 | IC50 [16]: 40000 nM
20 | CN(C)C(=O)c1cnc(Nc2ccc(F)cn2)cc1Nc1ccccc1C(N)=O |  | 87 | 11000 | 12000 |  |  |  | IC50 [24]: > 12500 nM; IC50 [25]: > 2000 nM; IC50 [26]: > 2000 nM; IC50 [27]: > 2000 nM; IC50 [28]: > 12500 nM
21 | CNC(=O)c1cnc(Nc2ccc(C)nn2)cc1Nc1ccccc1S(C)(=O)=O | > 12 |  | 490 | 320 | 630 | < 1.5 | > 2000 | IC50 [16]: 43000 nM
22 | CNC(=O)c1cnc(Nc2ccc(F)cn2)cc1Nc1ccccc1SC | 0.5 | 1.8 | 330 | 240 | 3100 | 7.9 |  | IC50 [1]: 4400 nM; remaining at 10 min [2]: 30%; remaining at 10 min [5]: 36%; remaining at 10 min [7]: 9%
23 | CNC(=O)c1cnc(NC(=O)C(C)C)cc1Nc1ccccc1S(C)(=O)=O |  |  | 1100 | 4400 | 5200 |  | > 2000 | 
